# Measurements published in patent US9999609B2, “Methods for treating or preventing fatigue” (SK Biopharmaceuticals Co., Ltd., priority 2009, dated 2018).
# Experiments:
# Format in all cases: in vivo
# [1] = test system: adult human subjects with moderate or severe major depression without psychotic features; experiment: Randomized double-blind placebo- and active-controlled 6-week study in major depression; conditions: 20 mg/day
# From the text: This was a randomized, double-blind, parallel-group, active, and placebo-controlled, multicenter study conducted in the U.S. (23 centers) and Canada (4 centers). There were 2 phases: a pretreatment phase (screening/washout and a baseline visit) and a 6-week, double-blind treatment phase. Paroxetine, a positive control, was included to evaluate assay sensitivity. After washout (if needed) of prohibited substances, subjects were randomly assigned (1:1:1:1) to receive the test compound titrated to a target dose of 200 mg/day or 400 mg/day, matching placebo, or a fixed dose (20 mg/day) of paroxetine. Study drug was given twice daily for 6 weeks. Efficacy and safety were assessed weekly during the double-blind phase. Subjects completing the study underwent an Exit Interview (“Your Health and Well-Being”) and completed an Assessment of Benefits of Clinical-trial Drug-treatment (ABCD) questionnaire (U.S. sites only).
# [2] = test system: male adult Sprague Dawley rats; experiment: Sleep-wake organization (EEG/EOG/EMG) in rats after acute i.p. administration; conditions: rats, mean ± s.e.m of 8 rats; for Duration Active wake / Duration Deep sleep / Duration Intemediate stage / Duration Light sleep / Duration Passive wake / Duration REM sleep: 16 h recording
# [3] = test system: hypocretin cell ablated narcoleptic mice (prepororexin/ataxin-3 transgenic) and their littermate wild-type mice; experiment: Sleep parameters (EEG/EMG polygraph) in narcoleptic and wild-type mice after oral dosing
# From the text: The polygraph signal (EEG and EMG) was captured with SleepSign (Kissei Comtech), and the sleep stage was visually scored with 10 sec epoch for wakefulness, non-REM sleep and REM sleep. Scoring criteria are: Wakefulness is characterized by desynchronized low-amplitude, mixed frequency (>4 Hz) EEG and high EMG activity. Rhythmic alpha (8-9 Hz) wave (with high EMG activities) may also appear. Non-REM is characterized by synchronized, high-amplitude, low-frequency (0.25-4 Hz) with reduced EMG activity (compared to wakefulness). EEG activity in REM sleep is similar to that in wakefulness, with desynchronized, mixed frequency low amplitude waves. Rhythmic alpha (8-9 Hz) wave with reduced EMG activities may also appear. […] is reduced even further and in many cases, completely absent. Same muscle twitching may be apparent in the EMG trace during REM sleep.
# Three drug doses of the test compound (50, 100 and 150 mg/kg PO) plus vehicle, were orally administered at ZT 2 (2 hours after light on) or ZT14 (2 hours after light off), and the effects on sleep were monitored for 6 hours after the drug administration (the sleep data was collected for 30 hours after the drug injection, and are available for further analysis). The doses for modafinil were 50 and 200 mg/kg PO (plus vehicle), and modafinil was also administered at ZT 2 and […]
# If the polygraph signals of some mice were not sufficient to score the sleep stage with accuracy (especially bad EMG), data from these animals were excluded, and the minimum of 5 animals (except for the highest dose of the test compound in wild-type mice in dark period, n=4) were included for the data analysis and number of animals were indicated in the figures.
# Effects of test compound and modafinil on the amount of wake, non-REM sleep, REM sleep (cumulative seconds), number of episodes for each sleep stage during 6 hours, and mean wake/sleep-bout lengths (seconds) were analyzed in each animal and the mean of each parameter was calculated in each genotype. The effects of compounds on wake and sleep amounts are useful to evaluate the wake promoting potency, and the number of episodes for each sloop stage and the mean wake/sleep bout length are parameters for evaluating the sleep fragmentation. Amphetamine and modafinil, two main wake-promoting compounds currently used for the treatment of EDS associated with various etiologies (narcolepsy, idiopathic hypersomnia and secondary EDS), are known to increase wake time and prolong wake bout length in normal and EDS conditions.
# A comparison of the effects between hypocretin deficient and wild-type mice is very useful in determining the wake-promotion of the test compound is dependent on the availability of hypocretins, and if there is a possible change in the sensitivity of the receptive mechanisms of test compound in narcoleptic mice due to the hypocretin ligand deficiency.
# [4] = test system: C57BL/6J, AKR/J and DBA/2J mice; experiment: Sleep onset and vigilance states in three inbred mouse strains after IP injection
# Procedure: At least 7 adult male mice of inbred strains C57BL/6J, AKR/J, and DBA/2J were recorded in 2 sessions of 72 continuous hours. The first 24 h in each session are considered as baseline followed the next day by the saline injection and the next day by 150 mg/kg of the test compound in the first session and 5 mg/kg d-amphetamine in the second session. The two sessions were separated by 7 days (wash-out period) and all injections were intraperitoneal (IP) and performed at light onset (9 am) in a volume of 5 ml/kg.
smiles,measurement,setting,value
Fc1ccc([C@@H]2CCNC[C@H]2COc2ccc3c(c2)OCO3)cc1 [paroxetine],"Insomnia, treatment-emergent adverse event incidence",[1]; 6 weeks,17%
same,ABCD questionnaire items (of 51) with statistically significant superiority to placebo,[1]; post hoc analyses,14 items
"COC(=O)[C@H]1[C@@H](OC(=O)c2ccccc2)C[C@@H]2CC[C@H]1N2C [Cocaine, cocaine]",Duration Active wake,[2]; 1 mg/kg i.p.,331.5 ± 41.5 min
same,Duration Deep sleep,[2]; 1 mg/kg i.p.,162.9 ± 26.3 min
same,Duration Intemediate stage,[2]; 1 mg/kg i.p.,6.7 ± 1.0 min
same,Duration Light sleep,[2]; 1 mg/kg i.p.,293.2 ± 26.3 min
same,Duration Passive wake,[2]; 1 mg/kg i.p.,69.8 ± 11.0 min
same,Duration REM sleep,[2]; 1 mg/kg i.p.,84.2 ± 8.1 min
same,Latency ISWS,[2]; 1 mg/kg i.p.,69.9 ± 51.2 min
same,Latency REM sleep,[2]; 1 mg/kg i.p.,74.3 ± 12.1 min
same,Latency dSWS,[2]; 1 mg/kg i.p.,79.3 ± 26.7 min
same,Shifts: Shift from ISWS to AW,[2]; 1 mg/kg i.p.,184.1 ± 48.1 number
same,Shifts: Shift from ISWS to PW,[2]; 1 mg/kg i.p.,128.6 ± 45.2 number
same,Shifts: Shift from REMS to AW,[2]; 1 mg/kg i.p.,74.5 ± 21.5 number
same,Shifts: Shift from REMS to PW,[2]; 1 mg/kg i.p.,17.0 ± 8.8 number
same,Shifts: Shift from dSWS to AW,[2]; 1 mg/kg i.p.,10.1 ± 5.6 number
same,Shifts: Shift from dSWS to PW,[2]; 1 mg/kg i.p.,66.6 ± 48.2 number
same,Duration Active wake,[2]; 3 mg/kg i.p.,324.8 ± 18.3 min
same,Duration Deep sleep,[2]; 3 mg/kg i.p.,172.6 ± 34.3 min
same,Duration Intemediate stage,[2]; 3 mg/kg i.p.,5.7 ± 0.6 min
same,Duration Light sleep,[2]; 3 mg/kg i.p.,303.2 ± 42.5 min
same,Duration Passive wake,[2]; 3 mg/kg i.p.,66.7 ± 8.9 min
same,Duration REM sleep,[2]; 3 mg/kg i.p.,76.7 ± 6.3 min
same,Latency ISWS,[2]; 3 mg/kg i.p.,41.5 ± 9.2 min
same,Latency REM sleep,[2]; 3 mg/kg i.p.,112.0 ± 12.2 min
same,Latency dSWS,[2]; 3 mg/kg i.p.,68.6 ± 7.6 min
same,Shifts: Shift from ISWS to AW,[2]; 3 mg/kg i.p.,218.5 ± 50.6 number
same,Shifts: Shift from ISWS to PW,[2]; 3 mg/kg i.p.,142.2 ± 48.5 number
same,Shifts: Shift from REMS to AW,[2]; 3 mg/kg i.p.,56.0 ± 16.4 number
same,Shifts: Shift from REMS to PW,[2]; 3 mg/kg i.p.,10.7 ± 6.9 number
same,Shifts: Shift from dSWS to AW,[2]; 3 mg/kg i.p.,10.2 ± 6.7 number
same,Shifts: Shift from dSWS to PW,[2]; 3 mg/kg i.p.,64.5 ± 42.6 number
same,Duration Active wake,[2]; 10 mg/kg i.p.,347.3 ± 16.5 min
same,Duration Deep sleep,[2]; 10 mg/kg i.p.,171.9 ± 23.8 min
same,Duration Intemediate stage,[2]; 10 mg/kg i.p.,6.3 ± 1.1 min
same,Duration Light sleep,[2]; 10 mg/kg i.p.,294.6 ± 24.4 min
same,Duration Passive wake,[2]; 10 mg/kg i.p.,55.0 ± 10.4 min
same,Duration REM sleep,[2]; 10 mg/kg i.p.,74.7 ± 7.5 min
same,Latency ISWS,[2]; 10 mg/kg i.p.,101.8 ± 6.9 min
same,Latency REM sleep,[2]; 10 mg/kg i.p.,192.1 ± 18.5 min
same,Latency dSWS,[2]; 10 mg/kg i.p.,138.8 ± 8.7 min
same,Shifts: Shift from ISWS to AW,[2]; 10 mg/kg i.p.,201.2 ± 53.6 number
same,Shifts: Shift from ISWS to PW,[2]; 10 mg/kg i.p.,132.6 ± 48.2 number
same,Shifts: Shift from REMS to AW,[2]; 10 mg/kg i.p.,52.3 ± 16.5 number
same,Shifts: Shift from REMS to PW,[2]; 10 mg/kg i.p.,9.2 ± 5.8 number
same,Shifts: Shift from dSWS to AW,[2]; 10 mg/kg i.p.,10.4 ± 6.2 number
same,Shifts: Shift from dSWS to PW,[2]; 10 mg/kg i.p.,37.6 ± 23.8 number
NC(=O)C[S+]([O-])C(c1ccccc1)c1ccccc1 (stereo not shown) [modafinil],effect on wakefulness,"[3]; active (dark) period, ZT14, PO",dose-dependently increased wakefulness
same,wake amount in narcoleptic mice relative to wild-type baseline,"[3]; active period, 200 mg/kg PO",did not bring the wake amount to that of the wild-type baseline levels
same,dose of test compound whose wake promoting effect corresponds to 200 mg/kg of modafinil,"[3]; resting period, PO",~50 mg/kg
same,effect on REM sleep,"[3]; resting period, PO",did not strongly reduce REM sleep
same,wake-promoting effects,"[3]; resting period, wild-type and hypocretin-deficient narcoleptic mice, PO",modest
"CC(N)Cc1ccccc1 (stereo not shown) [Amphetamine, amphetamine]",Duration Active wake,[2]; 1 mg/kg i.p.,382.4 ± 19.6 min
same,Duration Deep sleep,[2]; 1 mg/kg i.p.,188.0 ± 19.6 min
same,Duration Intemediate stage,[2]; 1 mg/kg i.p.,4.0 ± 19.6 min
same,Duration Light sleep,[2]; 1 mg/kg i.p.,242.7 ± 19.6 min
same,Duration Passive wake,[2]; 1 mg/kg i.p.,50.0 ± 19.6 min
same,Duration REM sleep,[2]; 1 mg/kg i.p.,88.6 ± 19.6 min
same,Latency ISWS,[2]; 1 mg/kg i.p.,140.6 ± 13.4 min
same,Latency REM sleep,[2]; 1 mg/kg i.p.,208.6 ± 14.4 min
same,Latency dSWS,[2]; 1 mg/kg i.p.,161.7 ± 5.3 min
same,Shifts: Shift from ISWS to AW,[2]; 1 mg/kg i.p.,198.8 ± 50.1 number
same,Shifts: Shift from ISWS to PW,[2]; 1 mg/kg i.p.,64.4 ± 30.5 number
same,Shifts: Shift from REMS to AW,[2]; 1 mg/kg i.p.,66.5 ± 19.1 number
same,Shifts: Shift from REMS to PW,[2]; 1 mg/kg i.p.,5.8 ± 4.8 number
same,Shifts: Shift from dSWS to AW,[2]; 1 mg/kg i.p.,11.7 ± 7.2 number
same,Shifts: Shift from dSWS to PW,[2]; 1 mg/kg i.p.,37.7 ± 30.0 number
same,Duration Active wake,[2]; 3 mg/kg i.p.,441.8 ± 15.7 min
same,Duration Deep sleep,[2]; 3 mg/kg i.p.,207.6 ± 17.7 min
same,Duration Intemediate stage,[2]; 3 mg/kg i.p.,4.0 ± 1.0 min
same,Duration Light sleep,[2]; 3 mg/kg i.p.,187.9 ± 23.9 min
same,Duration Passive wake,[2]; 3 mg/kg i.p.,43.5 ± 4.4 min
same,Duration REM sleep,[2]; 3 mg/kg i.p.,71.4 ± 4.1 min
same,Latency ISWS,[2]; 3 mg/kg i.p.,228.2 ± 25.0 min
same,Latency REM sleep,[2]; 3 mg/kg i.p.,338.6 ± 24.3 min
same,Latency dSWS,[2]; 3 mg/kg i.p.,242.0 ± 19.4 min
same,Shifts: Shift from ISWS to AW,[2]; 3 mg/kg i.p.,178.7 ± 46.6 number
same,Shifts: Shift from ISWS to PW,[2]; 3 mg/kg i.p.,62.4 ± 26.1 number
same,Shifts: Shift from REMS to AW,[2]; 3 mg/kg i.p.,59.3 ± 17.8 number
same,Shifts: Shift from REMS to PW,[2]; 3 mg/kg i.p.,3.3 ± 2.6 number
same,Shifts: Shift from dSWS to AW,[2]; 3 mg/kg i.p.,14.8 ± 7.8 number
same,Shifts: Shift from dSWS to PW,[2]; 3 mg/kg i.p.,26.6 ± 16.8 number
same,Duration Active wake,[2]; 10 mg/kg i.p.,498.7 ± 19.0 min
same,Duration Deep sleep,[2]; 10 mg/kg i.p.,181.2 ± 22.0 min
same,Duration Intemediate stage,[2]; 10 mg/kg i.p.,4.0 ± 1.0 min
same,Duration Light sleep,[2]; 10 mg/kg i.p.,182.0 ± 26.3 min
same,Duration Passive wake,[2]; 10 mg/kg i.p.,35.6 ± 4.7 min
same,Duration REM sleep,[2]; 10 mg/kg i.p.,53.6 ± 5.0 min
same,Latency ISWS,[2]; 10 mg/kg i.p.,284.7 ± 56.1 min
same,Latency REM sleep,[2]; 10 mg/kg i.p.,440.8 ± 57.8 min
same,Latency dSWS,[2]; 10 mg/kg i.p.,367.3 ± 5.5 min
same,Shifts: Shift from ISWS to AW,[2]; 10 mg/kg i.p.,201.7 ± 66.1 number
same,Shifts: Shift from ISWS to PW,[2]; 10 mg/kg i.p.,49.0 ± 25.5 number
same,Shifts: Shift from REMS to AW,[2]; 10 mg/kg i.p.,50.0 ± 16.2 number
same,Shifts: Shift from REMS to PW,[2]; 10 mg/kg i.p.,2.2 ± 1.9 number
same,Shifts: Shift from dSWS to AW,[2]; 10 mg/kg i.p.,9.7 ± 5.9 number
same,Shifts: Shift from dSWS to PW,[2]; 10 mg/kg i.p.,11.6 ± 8.9 number
C[C@H](N)Cc1ccccc1 [d-amphetamine],amount of wakefulness compared with 150 mg/kg test compound,[4]; 5 mg/kg IP,failed to induce the same amount of wakefulness as 150 mg/kg of test compound
same,genotype effect on induced wakefulness (AK vs D2 mice),[4]; 5 mg/kg IP,genotype-dependent effect
same,dose-response of induced wakefulness (sleep latency),"[4]; C57BL/6J mice, 1, 2, 4, 5, 8 mg/kg IP",dose-dependent manner between 1 and 5 mg/kg
